Data published in patent US6573276B2, “Muscarinic M1 agonist as an inhibitor of beta-amyloid (Aβ40 and Aβ42)-synthesis” (Boehringer Ingelheim Pharma KG, priority 2001, dated 2003).

Assays:
Aβ42 = assay: CSF levels of Aβ42 (sandwich ELISA) before and after 4 weeks of treatment, clinical phase II trial; assay type: in vivo, human
Procedure: (§1) To test whether this effect also occurs in humans, talsaclidine or placebo were administered to 40 patients with clinical diagnosis of probable senile dementia of Alzheimer-type and measured cerebrospinal fluid (CSF) levels of Aβ40 and Aβ42 before and at the end of 4 weeks of treatment. To control for specificity, CSF levels of both total tau and phosphorylated tau were also measured.
(§2) Diagnosis of probable Alzheimer's disease was made according to the National Institute of Neurological and Communicative Disorders and Stroke-Alzheimer's Disease and Related Disorders Association (NINCDS-ADRDA) as well as ICD10 criteria. All patients were community-dwelling and were referred to the participating dementia clinics from general practitioners, neurologists, and psychiatrists. All patients gave their informed consent and were screened for participation in a clinical phase II trial in accordance with GCP and ICH guidelines. The clinical phase II trial was designed to test the safety and tolerability of talsaclidine. CSF measurements were performed within a scientific add-on protocol and additional separate informed consent to the multicenter clinical trial.
Patients were carefully examined and received a thorough clinical work-up. Psychometric testing included the Mini Mental State Examination (MMSE) as a global screening instrument for dementia, the Alzheimer's Disease Assessment Scale, cognitive part (ADAScog), the Clinical Global Impression (CGI) and the Behavioral Pathology in AD (BEHAVE-AD). There were 40 participants in the study with two CSF samples each. Among the inclusion criteria were age below 85 years, MMSE between 12 and 28, and the absence of relevant systemic disorders.
Talsaclidine was given, in a randomized, double-blind design, three times per day (t.i.d) in a constant dosage with increasing dose panels. Both capsules or tablets of different dose strength were applied. The specific formulations used are outlined in detail below.
The aforementioned pharmaceutical compositions were administered twice daily or three times per day to the patients. The following dosings were applied: 4.5 mg talsaclidine (n=5 patients); 9 mg (n=4); 18 mg (n=4); 36 mg (n=4); 72 mg (n=4); 96 mg (n=4); 108 mg (n=4); 120 mg (n=2); 144 mg (n=3); and placebo (n=6).
Within one week of dementia testing and before treatment, CFS was obtained by lumbar puncture according to conventional techniques. CFS samples were frozen on dry ice immediately upon withdrawal at the bedside in 0.5 ml aliquots and stored at −85° C. until biochemical analyses. A second lumbar puncture was done after four weeks of treatment and the CFS obtained was processed identically to the initial lumbar puncture. All available CFS samples were included in the analyses.
Sandwich ELISA was performed by using precoated plates (INNOTEST β-Amyloid 1-42, 8-well strips; Innogenetics, Belgium) with the capture antibody 21F12 (Innogenetics, Belgium). The capture 21F12 is specific for the free carboxyl terminus of Aβ42 (peptide sequence Aβ33-42). After washing (5×, room temperature), biotinylated antibody 6E10 at […] concentration in blocking buffer (50 mM Tris-HCl pH 7.5; 140 mM NaCl; 5 mM EDTA; 0.05% NP40; 0.25% gelatine; 1% BSA) was added. Each assay plate included a standard curve with highly purified Aβ42. After color development with TMP and Vectastain ABC detection (streptavidin-peroxidase complex, Vectastain Elite ABC Kit), absorbance was read at 450 nm. The linear range of the assay was 30 pg/ml to 5 ng/ml. There was no cross reactivity in either assay with Aβ42 or Aβ40.
Statistical analyses of data were done by Wilcoxon signed-rank tests for paired samples as well as by the Mann-Whitney U test for group comparisons. Bonferroni correction for multiple testing was performed. Analyses of covariates were used to test whether changes correlated with age, gender, or dementia severity.

Aβ formation = settings: cell culture and brain slice models; background statement; cited from earlier work
Aβ40 = assay: CSF levels of Aβ40 (sandwich ELISA) before and after 4 weeks of treatment, clinical phase II trial; assay type: in vivo, human
Procedure: as §1
as §2, with “CSF measurements were performed within a scientific add-on protocol and additional separate informed consent to the multicenter clinical trial.” left out
Sandwich ELISA was performed with the capture antibody 6E10 (Senetek, Maryland Heights, Mo.). […] After color development with 3,5,3′,5′-tetramethylbenzidine (TMB) and hydrogen peroxide, absorbance was read at 450 nm on a microplate reader (Victor2 Multilabel, EG&G® Wallac). […]

tau protein = assay: CSF levels of tau (sandwich ELISA) before and after 4 weeks of treatment, clinical phase II trial; assay type: in vivo, human; settings: patients
Procedure: as §1, §2
Patients were carefully examined and received a thorough clinical work-up. […]
The monoclonal antibody AT120 that reacts with both normal and HPF-tau was used in a sensitive sandwich ELISA (Innogenetics, Belgium). […] Absorbance was read at 450 nm. […]

[1] = dosings 4.5 to 144 mg talsaclidine, four weeks
[2] = patients treated with talsaclidine, four weeks

C#CCOC1CN2CCC1CC2 (stereo not drawn) [talsaclidine]
dose dependence of the decrease of CSF levels of Aβ42 (Aβ42; [1]): not dose dependently | patients in whom CSF levels of Aβ42 decreased (Aβ42; [2]): 65% | patients in whom CSF levels of Aβ42 did not change (Aβ42; [2]): 15% | patients in whom CSF levels of Aβ42 increased (Aβ42; [2]): 20% | mean CSF levels of Aβ42 (mean±SD) (Aβ42; patients with probable Alzheimer's disease, talsaclidine group n=34, starting value ('decreased from'), value after four weeks not given): 0.126 ± 0.073 ng/mL | decrease of CSF levels of Aβ42 over time within the treatment group, median (Aβ42; patients, four weeks of treatment, n=34, significant): 17% | decrease of CSF levels of Aβ42 compared to placebo, median (Aβ42; patients, four weeks of treatment, talsaclidine n=34 vs placebo n=6, significant): 23% | Aβ formation (Aβ formation): lowers Aβ formation | dose dependence of change of CSF levels of Aβ40 (Aβ40; [1]): decreased dose dependently | CSF levels of Aβ40 in total in comparison to placebo (Aβ40; patients, four weeks of treatment): did not increase in total in comparison to placebo | dose dependence of change of CSF tau (tau protein; n=34, dosings 4.5 to 144 mg talsaclidine, four weeks): decreased dose dependently | CSF tau in total in comparison to placebo (tau protein; n=34, four weeks of treatment): did not decrease in total in comparison to placebo
